# Patent publication US8703805B2 (Exelixis Patent Company LLC, priority 2005, dated 2014)
# Test system: LXRα and/or LXRβ
# Test: LXR/LXRE co-transfection assay (luciferase reporter, CV-1 cells)
# Type: cell-based, human
# Conditions: IC50 or EC50 for LXR (LXRα and/or LXRβ, not distinguished), tested as described in Example 109, CV-1 cells
# Outline: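 Transient co-transfection of CV-1 cells with full-length human LXRα or LXRβ plus RXRα expression plasmids and an LXREx1-Tk-luciferase reporter; compounds (10 μM screen, ≤1% DMSO) incubated 20 h at 37 °C. Luminescence read after lysis; EC50/IC50 from 8-point half-log curves, efficacy relative to a high control or DMSO.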
row,SMILES,EC50 [nM]
1,"CC(C)(O)c1nn(-c2ccccc2Cl)c(-c2ccc(-c3cccc(S(C)(=O)=O)c3)s2)c1F [Example 1319, 2-[1-(2-chlorophenyl)-4-fluoro-5-{5-[3-(methylsulfonyl)phenyl]-2-thienyl}-1H-pyrazol-3-yl]propan-2-ol]",< 1000
2,"CS(=O)(=O)c1cccc(-c2ccc(-c3cc(C(=O)NCCCN4CCCC4)nn3-c3ccccc3Cl)s2)c1 [Example 733, 1-(2-chlorophenyl)-5-{5-[3-(methylsulfonyl)phenyl]-2-thienyl}-N-(3-pyrrolidin-1-ylpropyl)-1H-pyrazol-3-carboxamide]",< 1000
3,"CC(C)(CN)c1cc(-c2ccc(-c3cccc(S(C)(=O)=O)c3)s2)n(-c2ccccc2Cl)n1 [Example 1192, 2-[1-(2-chlorophenyl)-5-{5-[3-(methylsulfonyl)phenyl]-2-thienyl}-1H-pyrazol-3-yl]-2-methylpropan-1-amine]",< 1000
4,"Cc1cc(-c2cccc(S(C)(=O)=O)c2)ccc1-n1nc(C(C)(C)O)c(Cl)c1-c1ccccc1Cl [Example 1422, 2-(4-chloro-5-(2-chlorophenyol)-1-(3-methyl-3′-(methylsulfonyl)biphenyl-4-yl)-1H-pyrazol-3-yl)propan-2-ol]",< 1000
5,"COC(=O)CCNC(=O)c1ccc(-c2cc(C(F)(F)F)nn2-c2ccccc2Cl)cc1 [Example 1356, methyl N-({4-[1-(2-chlorophenyl)-3-(trifluoromethyl)-1H-pyrazol-5-yl]phenyl}carbonyl)-beta-alaninate]",1000 to 10000
6,"O=C(c1ccc(-c2cc(C(F)(F)F)nn2-c2ccccc2Cl)cc1)N1CCCC1CO (centres unmarked) [Example 1000, [1-({4-[1-(2-chlorophenyl)-3-(trifluoromethyl)-1H-pyrazol-5-yl]phenyl}carbonyl)pyrrolidin-2-yl]methanol]",1000 to 10000
7,"CS(=O)(=O)c1cccc(-c2ccc(-c3cc(C(=O)N4CCCC4)nn3-c3ccccc3Cl)s2)c1 [Example 1129, 1-(2-chlorophenyl)-5-{5-[3-(methylsulfonyl)phenyl]-2-thienyl}-3-(pyrrolidin-1-ylcarbonyl)-1H-pyrazole]",< 1000
8,"CCS(=O)(=O)c1cccc(-c2ccc(-c3cc(C(C)(C)C(=O)O)nn3-c3ccccc3Cl)s2)c1 [Example 1302, 2-[1-(2-chlorophenyl)-5-{5-[3-(ethylsulfonyl)phenyl]-2-thienyl}-1H-pyrazol-3-yl]-2-methylpropanoic acid]",1000 to 10000
9,"CC(C)(O)c1cc(-c2ccc(-c3cccc(S(C)(=O)=O)c3)s2)n(-c2ccc(F)c(F)c2)n1 [Example 1267, 2-[1-(3,4-difluorophenyl)-5-{5-[3-(methylsulfonyl)phenyl]-2-thienyl}-1H-pyrazol-3-yl]propan-2-ol]",1000 to 10000

# Other lines, results leading:
row,EC50 [nM],SMILES
1,1000 to 10000,"CS(=O)(=O)c1cccc(-c2ccc(-c3cc(C(=O)N4CCC(C(=O)O)CC4)nn3-c3ccccc3Cl)s2)c1 [Example 592, 1-(1-(2-chlorophenyl)-5-(5-(3-(methylsulfonyl)phenyl)thiophen-2-yl)-1H-pyrazole-3-carbonyl)piperidine-4-carboxylic acid]"
2,1000 to 10000,"CC(C)(O)c1nn(-c2ccccc2Cl)c(-c2ccc(-c3cccc(S(C)(=O)=O)c3)cn2)c1Cl [Example 128, 2-(4-chloro-1-(2-chlorophenyl)-5-(5-(3-(methylsulfonyl)phenyl)pyridin-2-yl)-1H-pyrazol-3-yl)propan-2-ol]"
3,< 1000,"CC(C)(O)c1nn(-c2cccc(F)c2Cl)c(-c2ccc(-c3cccc(S(C)(=O)=O)c3)s2)c1Cl [Example 1371, 2-[4-chloro-1-(2-chloro-3-fluorophenyl)-5-{5-[3-(methylsulfonyl)phenyl]-2-thienyl}-1H-pyrazol-3-yl]propan-2-ol]"
4,< 1000,"Cc1cc(-c2cccc(S(C)(=O)=O)c2)ccc1-c1cc(C(C)(C)O)nn1-c1c(Cl)cccc1Cl [Example 147, 2-(1-(2,6-dichlorophenyl)-5-(3-methyl-3′-(methylsulfonyl)biphenyl-4-yl)-1H-pyrazol-3-yl)propan-2-ol]"
5,1000 to 10000,"CC(C)(O)c1cc(-c2ccc(-c3cccc(S(C)(=O)=O)c3)s2)n(-c2ccccn2)n1 [Example 1264, 2-(5-{5-[3-(methylsulfonyl)phenyl]-2-thienyl}-1-pyridin-2-yl-1H-pyrazol-3-yl)propan-2-ol]"
